In ChEMBL document CHEMBL1138671, “Structure-based design, synthesis, and evaluation of conformationally constrained mimetics of the second mitochondria-derived activator of caspase that target the X-linked inhibitor of apoptosis protein/caspase-9 interaction site” (J Med Chem, 2004) one finds Ki data, which are given here for two compounds.

This test concerns the target E3 ubiquitin-protein ligase XIAP (Homo sapiens, UniProt P98170). The experiment in a line: Binding affinity for the recombinant XIAP BIR3 protein in displacing a fluorescently labeled Smac peptide.

The structures appear in SMILES notation.

E3 ubiquitin-protein ligase XIAP, sequence (P98170 whole entry): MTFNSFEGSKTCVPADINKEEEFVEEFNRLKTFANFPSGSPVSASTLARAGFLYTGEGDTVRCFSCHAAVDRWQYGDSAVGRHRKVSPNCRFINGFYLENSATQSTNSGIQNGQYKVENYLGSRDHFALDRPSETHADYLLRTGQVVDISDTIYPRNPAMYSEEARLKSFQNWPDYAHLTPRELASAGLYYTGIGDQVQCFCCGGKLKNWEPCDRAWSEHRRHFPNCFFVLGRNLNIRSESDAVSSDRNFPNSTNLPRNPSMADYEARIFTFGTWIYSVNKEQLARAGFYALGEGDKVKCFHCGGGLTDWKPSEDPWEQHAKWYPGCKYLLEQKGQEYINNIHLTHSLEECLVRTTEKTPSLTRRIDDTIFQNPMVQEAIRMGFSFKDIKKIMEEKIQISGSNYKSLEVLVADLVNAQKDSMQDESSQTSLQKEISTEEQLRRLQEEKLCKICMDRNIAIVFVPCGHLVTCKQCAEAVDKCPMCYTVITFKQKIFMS

The term Ki denotes the equilibrium dissociation constant of an inhibitor or competing ligand from its target. On to `C[C@H](N)C(=O)NC1CC[C@H]2CC[C@@H](C(=O)Nc3ccccc3)N2C1=O` (some centres not stated), for which the inhibition constant Ki was greater than 100 µM.
As to `CCC[C@H](N)C(=O)NC1CC[C@H]2CC[C@@H](C(=O)NCc3ccccc3)N2C1=O` (some centres not stated), the Ki was greater than 100 µM.
